The record followed here is patent US5264429A, “2-spirocyclopropyl cephalosporin sulfone derivatives” (SynPhar Laboratories, Inc., priority 1991, dated 1993).

For orientation: IC50 means the concentration that gives 50% inhibition.

Test [1] deals with T1, human leukocyte elastase (HLE) (Homo sapiens, UniProt P08246).
T1 construct: from tissue; host or cells: human white blood cells
T1 sequence (P08246 30-247 limits assumed): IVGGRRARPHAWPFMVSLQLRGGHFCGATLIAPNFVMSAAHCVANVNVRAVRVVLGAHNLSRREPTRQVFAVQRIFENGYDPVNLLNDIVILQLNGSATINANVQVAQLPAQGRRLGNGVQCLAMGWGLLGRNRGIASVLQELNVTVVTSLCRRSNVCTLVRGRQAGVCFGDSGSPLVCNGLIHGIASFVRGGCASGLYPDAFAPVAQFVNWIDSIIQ
Nature of the test: Enzyme Assay for Inhibition of HLE. The test is classed as biochemical. The conditions noted are these: HLE 10 nM, pH 7.6, 10 minute preincubation, 30° C. On the procedure:
Enzyme Assay for Inhibition of HLE:
Enzyme: Purified elastase from human white blood cells.
Substrate: MeO-succinyl-L-alanyl-L-alanyl-L-prolyl-L-valine-p-nitro-anilide(NA).
Reaction Mixture: 10 mM phosphate buffer (pH 7.6), 500 mM NaCl, 10% dimethylsulfoxide (DMSO), 0.35 mM substrate.
The enzyme activity was determined by monitoring the increase in absorbance at 410 nm caused by the hydrolysis of chromogenic substrates. Inhibition of enzyme by the compounds described were determined after a 10 minute preincubation with the enzyme in reaction mixture minus substrate. Reaction was initiated by the addition of substrate. The concentration of human leukocyte elastase used for assay was at 10 nM.
HLE, CTG, PPE and CTD were tested at 30° C. and the others were […]

Test [2] has as its target T2, trypsin (Bos taurus, UniProt P00760).
T2 construct: from tissue; host or cells: bovine pancreas
T2 sequence (P00760 24-246): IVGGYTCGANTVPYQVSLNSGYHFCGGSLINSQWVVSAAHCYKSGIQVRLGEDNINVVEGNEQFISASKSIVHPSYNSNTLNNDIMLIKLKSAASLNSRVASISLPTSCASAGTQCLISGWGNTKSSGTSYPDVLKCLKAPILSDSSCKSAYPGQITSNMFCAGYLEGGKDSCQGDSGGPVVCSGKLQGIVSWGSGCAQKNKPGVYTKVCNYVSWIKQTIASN
Nature of the test: Inhibition of trypsin (TRY). In kind it is biochemical, bovine. The conditions noted are these: trypsin, pH 8.8, 10 minute preincubation, 22° C.; read-out: IC50 TRY (converted).
Experimental: Enzyme: Purified trypsin from bovine pancreas
Substrate: Bz-L-arginine-p-NA
Reaction mixture: 50 mM Tricine[N-Tris(hydroxymethyl)methylglycine]-NaOH buffer (pH 8.8) 150 mM NaCl, 10% DMSO 1.0 mM Substrate.
Inhibition of enzymes by the compounds described were determined after a 10 minute preincubation with enzymes in reaction mixtures minus substrate. Reactions were initiated by the addition of substrates. […] All other proteases were assayed at the concentrations that produced approximately 0.1 O.D. change per minute at 410 nm under the standard conditions.

Test [3] has as its target T3, thrombin (Homo sapiens, UniProt P00734).
T3 construct: from tissue; host or cells: human plasma
Nature of the test: Inhibition of thrombin (THR). In kind it is biochemical. The conditions noted are these: pH 8.6, 10 minute preincubation, 22° C. On the procedure: (§1) HLE, CTG, PPE and CTD were tested at 30° C. and the others were
(§2) TRY, trypsin; THR, thrombin; PTH, plasmin; CTC, cathepsin C; ATM,
Enzyme: Purified thrombin from human plasma
Substrate: Tosyl-glycyl-L-prolyl-L-arginine-p-NA acetate
Reaction mixture: 50 mM Tricine-NaOH buffer (pH 8.6), 500 mM NaCl, 0.1% Polyethyleneglycol 8000, 10% DMSO, 0.5 mM Substrate.
(§3) Except for Cathepsin D, the enzyme activities were determined by monitoring the increase in absorbance at 410 nm caused by the hydrolysis of chromogenic substrates. The activity of Cathepsin D was determined by monitoring the absorbance of 5% trichloroacetic acid-soluble material at 280 nm.
(§4) Inhibition of enzymes by the compounds described were determined after a 10 minute preincubation with enzymes in reaction mixtures minus substrate. Reactions were initiated by the addition of substrates. The concentration used for assays were porcine pancreatic elastase at 240 nM and human Cathepsin G at 50 nM. Cathepsin D was used at the concentration that produced approximately 0.15 O.D. increase per 20 min at 280 nm under the standard conditions. All other proteases were assayed at the concentrations that produced approximately 0.1 O.D. change per minute at 410 nm under the standard conditions.

Test [4] deals with T4, plasmin (Homo sapiens, UniProt P00747).
T4 construct: from tissue; host or cells: human plasma
Nature of the test: Inhibition of plasmin (PTH). In kind it is biochemical. The conditions noted are these: pH 8.9, 10 minute preincubation, 22° C. On the procedure:
as §1, §2
Enzyme: Purified plasmin from human plasma Substrate: Tosyl-glyclyl-L-prolyl-L-lysine-pNA acetate
Reaction mixture: 50 mM Tris-HCl buffer (pH 8.9), 500 mM NaCl, 5% DMSO, 0.5 mM Substrate.
as §3, §4

For test [5], the target named is T5, cathepsin C (Bos taurus, UniProt Q3ZCJ8).
T5 construct: from tissue; host or cells: bovine spleen
Nature of the test: Inhibition of cathepsin C (CTC). The conditions noted are these: cathepsin C, pH 5.4, 10 minute preincubation, 22° C.; read-out: IC50 CTC. In kind it is biochemical, bovine. As to the method:
as §1, §2
Enzyme: Purified cathepsin C from bovine spleen
Substrate: Glycyl-L-phenylalanine-pNA
Reaction mixture: 50 mM Citrate buffer (pH 5.4), 5 mM B-Mercaptoethanol, 150 mM NaCl, 10% DMSO, 20 mM Substrate.
as §3, §4

Test [6] addresses T6, aminopeptidase M (Sus scrofa, UniProt P15145).
T6 construct: from tissue; host or cells: porcine kidney
T6 sequence (P15145 1-963): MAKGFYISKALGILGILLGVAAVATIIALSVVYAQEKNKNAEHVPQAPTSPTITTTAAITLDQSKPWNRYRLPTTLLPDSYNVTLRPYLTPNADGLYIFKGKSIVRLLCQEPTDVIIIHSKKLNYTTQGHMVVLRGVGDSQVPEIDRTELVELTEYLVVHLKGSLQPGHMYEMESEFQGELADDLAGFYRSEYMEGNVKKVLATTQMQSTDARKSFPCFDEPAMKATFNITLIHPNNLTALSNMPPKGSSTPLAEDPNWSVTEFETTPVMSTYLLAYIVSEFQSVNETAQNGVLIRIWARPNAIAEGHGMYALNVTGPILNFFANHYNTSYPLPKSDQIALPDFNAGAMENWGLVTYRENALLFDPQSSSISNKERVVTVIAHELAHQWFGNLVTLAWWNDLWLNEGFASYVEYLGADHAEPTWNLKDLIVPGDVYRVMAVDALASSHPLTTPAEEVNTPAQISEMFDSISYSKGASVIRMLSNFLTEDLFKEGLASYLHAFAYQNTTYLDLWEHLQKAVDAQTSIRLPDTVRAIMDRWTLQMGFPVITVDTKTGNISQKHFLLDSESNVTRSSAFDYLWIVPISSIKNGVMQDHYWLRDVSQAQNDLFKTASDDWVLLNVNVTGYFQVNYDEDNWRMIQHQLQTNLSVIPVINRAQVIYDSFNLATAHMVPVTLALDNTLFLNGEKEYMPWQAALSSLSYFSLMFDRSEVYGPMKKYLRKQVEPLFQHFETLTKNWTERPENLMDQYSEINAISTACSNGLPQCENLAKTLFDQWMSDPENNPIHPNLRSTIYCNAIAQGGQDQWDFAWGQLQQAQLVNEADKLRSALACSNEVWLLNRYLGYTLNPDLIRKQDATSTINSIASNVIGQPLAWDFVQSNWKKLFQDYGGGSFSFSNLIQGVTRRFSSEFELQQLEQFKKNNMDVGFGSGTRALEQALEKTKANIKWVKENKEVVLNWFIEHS
Nature of the test: Inhibition of aminopeptidase M (ATM). In kind it is biochemical, porcine. The conditions noted are these: aminopeptidase M, pH 7.5, 10 minute preincubation, 22° C.; read-out: IC50 ATM. As to the method: as §1, §2
aminopeptidase M; CTG, cathespin G; CTD, cathespin D; PPE, porcine
Enzyme: Purified aminopeptidase M from porcine kidney
Reaction Mixture: 50 mM Tricine buffer (pH 7.5), 500 mM NaCl, 10% DMSO, 2.0 mM Substrate.
as §3, §4

The target in test [7] is T7, cathepsin G (Homo sapiens, UniProt P08311).
T7 construct: from tissue; host or cells: human white blood cells
T7 sequence (P08311 21-244 limits assumed): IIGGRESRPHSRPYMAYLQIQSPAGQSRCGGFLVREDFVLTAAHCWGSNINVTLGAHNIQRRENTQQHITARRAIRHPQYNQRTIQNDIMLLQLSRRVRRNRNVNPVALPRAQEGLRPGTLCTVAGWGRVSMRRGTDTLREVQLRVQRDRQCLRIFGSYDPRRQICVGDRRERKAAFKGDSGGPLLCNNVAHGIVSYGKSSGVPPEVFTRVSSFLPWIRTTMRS
Nature of the test: Inhibition of cathepsin G (CTG). The conditions noted are these: cathepsin G 50 nM, pH 7.5, 10 minute preincubation, 30° C.; read-out: IC50 CTG (converted). The test is classed as biochemical.
Experimental: Enzyme: Purified Cathepsin G from human white blood cells
Substrate: N-succinyl-L-alanyl-L-alanyl-L-phenylalanyl-L-phenylalanine -p-NA.
Reaction mixture: 10 mM Phosphate buffer (pH 7.5), 500 mM NaCl, 10% DMSO, 2.0 mM Substrate.

In test [8] the target is T8, cathepsin D (Bos taurus, UniProt P80209).
T8 construct: from tissue; host or cells: bovine spleen
Nature of the test: Inhibition of cathepsin D (CTD). The test is classed as biochemical, bovine. On the procedure:
as §4, with “Except for Cathepsin D, the enzyme activities were determined by monitoring the increase in absorbance at 410 nm caused by the hydrolysis of chromogenic substrates. The activity of Cathepsin D was determined by monitoring the absorbance of 5% trichloroacetic acid-soluble material at 280 nm. Inhibition” for “Inhibition”, “The concentration used for assays were porcine pancreatic elastase at 240 nM and human Cathepsin G at 50 nM.” left out

Where only a bound is given, the exact number is not on record here.

T8 sequence (P80209 45-390): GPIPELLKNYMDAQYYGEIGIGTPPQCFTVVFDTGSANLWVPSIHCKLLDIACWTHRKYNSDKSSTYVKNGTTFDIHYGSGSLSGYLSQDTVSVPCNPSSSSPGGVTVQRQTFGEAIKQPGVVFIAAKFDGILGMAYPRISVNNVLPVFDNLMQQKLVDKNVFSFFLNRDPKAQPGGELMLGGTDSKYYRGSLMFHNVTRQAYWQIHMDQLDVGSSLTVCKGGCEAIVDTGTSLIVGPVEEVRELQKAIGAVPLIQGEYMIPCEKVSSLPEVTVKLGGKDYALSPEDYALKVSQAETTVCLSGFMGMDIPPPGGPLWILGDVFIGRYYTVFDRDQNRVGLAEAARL
T5 sequence (Q3ZCJ8 231-394 limits assumed): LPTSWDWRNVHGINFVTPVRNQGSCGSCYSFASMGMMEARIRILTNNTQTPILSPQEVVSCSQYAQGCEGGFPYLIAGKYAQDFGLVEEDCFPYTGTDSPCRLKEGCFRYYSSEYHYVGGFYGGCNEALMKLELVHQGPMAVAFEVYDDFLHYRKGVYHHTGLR
T5 sequence (Q3ZCJ8 395-463 limits assumed): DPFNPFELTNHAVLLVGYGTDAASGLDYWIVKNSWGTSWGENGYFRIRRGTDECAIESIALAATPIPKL
T5 sequence (Q3ZCJ8 25-134 limits assumed): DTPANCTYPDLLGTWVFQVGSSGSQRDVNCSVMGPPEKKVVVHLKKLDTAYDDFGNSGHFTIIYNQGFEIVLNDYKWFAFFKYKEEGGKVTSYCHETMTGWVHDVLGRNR
T4 sequence (P00747 581-810 limits assumed): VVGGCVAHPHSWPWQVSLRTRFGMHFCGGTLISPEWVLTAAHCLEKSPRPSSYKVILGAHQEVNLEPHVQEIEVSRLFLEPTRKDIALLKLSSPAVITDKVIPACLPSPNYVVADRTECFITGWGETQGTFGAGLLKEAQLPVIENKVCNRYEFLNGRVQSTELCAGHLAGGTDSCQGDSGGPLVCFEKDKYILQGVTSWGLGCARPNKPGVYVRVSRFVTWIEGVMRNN
T4 sequence (P00747 97-580 partner limits assumed): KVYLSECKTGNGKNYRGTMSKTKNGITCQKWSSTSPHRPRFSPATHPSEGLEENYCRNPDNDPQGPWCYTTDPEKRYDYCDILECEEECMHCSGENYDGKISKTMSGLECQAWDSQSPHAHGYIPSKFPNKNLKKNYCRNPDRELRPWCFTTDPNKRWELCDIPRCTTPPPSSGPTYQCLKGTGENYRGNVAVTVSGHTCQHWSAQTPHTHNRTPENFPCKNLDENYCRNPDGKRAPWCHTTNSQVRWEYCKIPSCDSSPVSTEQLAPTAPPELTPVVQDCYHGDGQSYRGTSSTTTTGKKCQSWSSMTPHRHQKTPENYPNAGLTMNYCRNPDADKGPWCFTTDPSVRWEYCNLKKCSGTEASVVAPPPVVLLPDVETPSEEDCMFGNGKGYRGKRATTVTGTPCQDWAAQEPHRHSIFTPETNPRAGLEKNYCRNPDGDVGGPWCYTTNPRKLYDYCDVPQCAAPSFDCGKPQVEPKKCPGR

The molecule `Cc1nnc(SCC2=C(C(=O)OC(c3ccccc3)c3ccccc3)N3C(=O)[C@H](Br)[C@H]3[S+]([O-])C23CC3(c2ccc(Cl)cc2)c2ccc(Cl)cc2)s1` (stereo partly drawn) [Benzhydryl-7α-bromo-2-spiro[2',2'-(4',4'-dichloro)diphenyl]-cyclopropyl-3-[(5-methyl-1,3,4-thiadiazol-2-yl)thiomethyl]-3-cephem-4-carboxylate-1-oxide] gave an IC50 in test [1] of 48.9 nM.
Consider `CC(=O)OCC1=C(C(=O)OC(C)(C)C)N2C(=O)[C@H](Cl)[C@H]2S(=O)(=O)C12CC2(c1ccccc1)c1ccccc1` (stereo partly drawn) [Example 4, t-Butyl 7α-chloro-2-spiro(2',2'-diphenyl)cyclopropyl-3-acetoxymethyl-3-cephem-4-carboxylate-1,1-dioxide], for which, in test [1], the IC50 was 91.4 nM.
On the same count and under the same terms, the result for `CC1=C(C(=O)OC(c2ccccc2)c2ccccc2)N2C(=O)CC2S(=O)(=O)C12CC2(c1ccccc1)c1ccccc1` (stereo not shown) [Example 5, Benzhydryl 7,7-dihydro-2-spiro(2',2'-diphenyl)cyclopropyl-3-methyl-3-cephem-4-carboxylate-1,1-dioxide] reads 149 nM.
In the case of `CO[C@H]1C(=O)N2C(C(=O)N3CCCCC3)=C(C)C3(CC3(c3ccccc3)c3ccccc3)S(=O)(=O)[C@H]12` (stereo partly drawn) [Example 11, 7α-Methoxy-2-spiro (2',2'-diphenyl)cyclopropyl-3-methyl-3-cephem-4-piperidine carboxamide-1,1-dioxide], the half-inhibitory concentration (IC50) in test [1] is 10.7 nM; in test [2], > 10000 nM; in test [3], > 39900 nM; in test [4] it was > 10000 nM; in test [5], > 10000 nM; in test [6], > 10000 nM. Moreover, the IC50 in test [7] was > 10000 nM; in test [8] it was 31.6 nM.
As to `CC1=C(C(=O)OC(c2ccccc2)c2ccccc2)N2C(=O)[C@H](Br)[C@H]2S(=O)(=O)C12CC2c1ccccc1` (stereo partly drawn) [Example 13 (3), Benzhydryl 7α-bromo-2-spiro(2'-phenyl)cyclopropyl-3-methyl-3-cephem-4-carboxylate-1,1-dioxide], half-maximal inhibition in test [1] (IC50) required 6.57 nM.
On the same count and under the same terms, the result for `COc1ccc(COC(=O)C2=C(CCl)C3(CC3(c3ccccc3)c3ccccc3)S(=O)(=O)[C@@H]3[C@@H](Br)C(=O)N23)cc1` (stereo partly drawn) [p-Methoxybenzyl 7α-bromo-2-spiro(2',2'-diphenyl) cyclopropyl-3-chloromethyl-3-cephem-4-carboxylate-1,1-dioxide] reads 4.04 nM.
